One test concerns the target Human GLP-1R (Homo sapiens, UniProt P43220). As to conditions: background statement; cited from earlier work.
The conditions of test [1]: 26 weeks, cited from earlier work.
A further test has as its target GCG receptor (Homo sapiens, UniProt P47871). As to conditions: background statement; cited from earlier work.
Another test relates to C57 BL/6J DIO mice. Nature of the test: In vivo pharmacodynamics in high-fat diet induced obesity (DIO) mice. Also noted: species or system mouse. As to conditions: Mean±SEM; for Weight change: Table 6-1; for LDL-C / TC (total cholesterol) / TG (plasma triglycerides): Table 7-1, Day 15. The text has this: High-fat diet induced obesity (DIO) mice have characteristics such as obesity, elevated blood sugar, insulin resistance, and lipid abnormalities, all of which are very significant metabolic syndromes similar to a human body. The effects of the compounds of the present application on body weight, food intake, blood sugar, and lipids in C57 BL/6J DIO mice were studied.
Obesity was induced in mice by feeding with a high-fat diet (60 kcal % of calories from fat). […] After grouping, one animal was raised in each cage for one week, during which each of the animals was injected subcutaneously (S.C.) with a solvent (1×PBS, 5 ml/kg) to pre-adapt the experimental operation process.
After the preparation of animals, vehicle control or compounds were administered to groups of animals by subcutaneous injection, in which the compounds were dissolved in 1×PBS, the dosage was 5 ml/kg, and the administration operation was started at 9:00 am and conducted once every three days (Q3D) for 15 days. Throughout the entire experimental study, animal weight and food intake were measured daily before administration, and compared with initial weight and food intake of the same animal before administration to calculate a percentage change in animal weight (%) and cumulative food intake, so as to evaluate the impact of compounds on changes in body weight and food intake.
At the end point of the experiment (Day 15), the body weight of the mice was measured, and then fasting blood glucose was measured by taking blood from the tail tip of broken tail without anesthesia. After the blood collection, the animals were anesthetized with CO2 and euthanized. Then, blood was taken from the heart and plasma was separated by centrifugation. The plasma was used to measure total cholesterol (TC), low-density lipoprotein cholesterol (LDL-C), triglycerides (TG), and blood insulin content. The liver was separated for homogenization, and then centrifuged to obtain the supernatant for determining triglyceride content in the liver.
All results were expressed in Mean±SEM, and the results were analyzed by one-way ANOVA using GraphPad Prism 5 software, followed by Dunnett's post hoc test compared to the Vehicle control group. The difference at the p<0.05 level was considered statistically significant.

For test [2] the following is noted: Phase II clinical study, cited from earlier work.
Test [3] concerns the target T1, human GIP receptor (human) (UniProt P48546).
T1 sequence (looked up): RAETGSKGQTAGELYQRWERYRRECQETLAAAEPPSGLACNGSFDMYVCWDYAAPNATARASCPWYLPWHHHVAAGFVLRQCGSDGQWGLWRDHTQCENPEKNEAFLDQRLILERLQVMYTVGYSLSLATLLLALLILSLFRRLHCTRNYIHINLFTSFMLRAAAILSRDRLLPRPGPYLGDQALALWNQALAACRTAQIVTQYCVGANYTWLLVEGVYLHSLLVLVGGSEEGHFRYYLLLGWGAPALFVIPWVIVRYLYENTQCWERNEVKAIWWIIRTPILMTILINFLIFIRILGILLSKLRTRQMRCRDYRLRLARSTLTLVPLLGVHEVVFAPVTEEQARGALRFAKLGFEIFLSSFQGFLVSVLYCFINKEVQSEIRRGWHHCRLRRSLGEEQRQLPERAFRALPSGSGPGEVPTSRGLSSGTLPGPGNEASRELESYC
Nature of the test: cell-based or functional assay.

The values below come from US20250129135A1, “Multi-Agonist and Use Thereof” (priority 2021, published 2025).

Starred links: 1 amine or outer side, 2 acyl side, 3 side chain; linkers in the order of their positions; H or OH if unused. Non-standard residues stand in square brackets, D forms with d. Groups on a side chain read outwards from the residue. No end group written: not given here. *: point of attachment. C20 diacid = O=C(O)CCCCCCCCCCCCCCCCCCC(=O)*; γGlu = O=C(O)[C@H](CCC(=O)[*:2])N[*:1]; AEEA = NCCOCCOCC(=O)O; Aib = CC(C)(N)C(=O)O

Human GLP-1R, sequence (P43220 24-463, species assumed): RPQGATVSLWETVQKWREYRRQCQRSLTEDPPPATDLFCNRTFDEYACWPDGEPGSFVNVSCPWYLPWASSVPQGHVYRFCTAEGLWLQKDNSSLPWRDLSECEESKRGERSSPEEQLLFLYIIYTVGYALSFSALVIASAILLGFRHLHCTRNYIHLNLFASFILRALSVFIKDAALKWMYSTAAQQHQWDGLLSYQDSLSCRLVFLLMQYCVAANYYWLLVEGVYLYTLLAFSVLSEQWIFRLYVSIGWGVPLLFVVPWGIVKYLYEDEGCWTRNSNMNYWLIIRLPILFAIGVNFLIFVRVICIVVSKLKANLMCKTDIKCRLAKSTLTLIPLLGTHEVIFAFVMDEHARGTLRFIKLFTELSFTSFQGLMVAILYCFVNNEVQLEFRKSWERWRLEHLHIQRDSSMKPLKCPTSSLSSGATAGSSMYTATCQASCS
GCG receptor, sequence (P47871 26-477): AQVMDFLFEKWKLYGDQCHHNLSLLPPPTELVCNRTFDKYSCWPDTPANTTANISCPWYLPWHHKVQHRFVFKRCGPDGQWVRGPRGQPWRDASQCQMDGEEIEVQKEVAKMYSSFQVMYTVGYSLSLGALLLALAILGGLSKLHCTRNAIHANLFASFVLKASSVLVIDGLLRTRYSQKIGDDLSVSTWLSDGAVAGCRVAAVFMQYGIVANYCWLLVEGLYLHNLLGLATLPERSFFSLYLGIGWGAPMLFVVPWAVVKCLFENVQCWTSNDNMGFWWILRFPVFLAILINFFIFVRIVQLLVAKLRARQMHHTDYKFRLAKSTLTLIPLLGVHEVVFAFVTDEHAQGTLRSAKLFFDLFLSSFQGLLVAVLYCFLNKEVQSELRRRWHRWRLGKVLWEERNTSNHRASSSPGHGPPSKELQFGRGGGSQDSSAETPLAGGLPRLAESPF

With `CCCCCCCCCCCCCCCC(=O)N[C@@H](CCC(=O)NCCCC[C@H](NC(=O)[C@H](CC(=O)O)NC(=O)[C@H](CO)NC(=O)[C@@H](NC(=O)[C@H](Cc1ccccc1)NC(=O)[C@@H](NC(=O)CNC(=O)[C@H](CCC(N)=O)NC(=O)[C@H](CO)NC(=O)[C@@H](N)Cc1c[nH]cn1)[C@@H](C)O)[C@@H](C)O)C(=O)N[C@@H](CO)C(=O)N[C@@H](CCC(=O)O)C(=O)N[C@@H](Cc1ccc(O)cc1)C(=O)N[C@@H](CC(C)C)C(=O)N[C@@H](CC(=O)O)C(=O)N[C@@H](CO)C(=O)N[C@@H](CCC(=O)O)C(=O)N[C@@H](CCCNC(=N)N)C(=O)N[C@@H](C)C(=O)N[C@@H](CCCNC(=N)N)C(=O)N[C@@H](CC(=O)O)C(=O)N[C@@H](Cc1ccccc1)C(=O)N[C@H](C(=O)N[C@@H](C)C(=O)N[C@@H](Cc1c[nH]c2ccccc12)C(=O)N[C@@H](CC(C)C)C(=O)N[C@@H](CCC(=O)O)C(=O)N[C@@H](C)C(=O)NCC(=O)NCC(=O)O)C(C)C)C(=O)O` [Cotadutide], the “GLP-1 receptor activity EC50 relative to wild-type GLP-1” value at Human GLP-1R is 29%. The “body weight, blood lipids, and levels of ALT and AST” value in test [1] (100-300 μg compared to liraglutide) is recorded as “dose-dependent reduction”. For the same molecule, the “reduction of HbA1c” value in test [1] (each dose group compared to liraglutide) is on record as “no significant advantage”. The “GCG receptor relative activity EC50” value at GCG receptor is listed as 12.8%.

On to `CC[C@H](C)[C@H](NC(=O)[C@H](CC(C)C)NC(=O)[C@H](Cc1c[nH]c2ccccc12)NC(=O)[C@H](CCC(N)=O)NC(=O)[C@@H](NC(=O)[C@H](Cc1ccccc1)NC(=O)[C@H](C)NC(=O)[C@H](CCCCNC(=O)COCCOCCNC(=O)COCCOCCNC(=O)CC[C@H](NC(=O)CCCCCCCCCCCCCCCCCCC(=O)O)C(=O)O)NC(=O)[C@H](CCC(N)=O)NC(=O)[C@H](C)NC(=O)[C@@H](NC(=O)[C@H](CCCCN)NC(=O)[C@H](CC(=O)O)NC(=O)[C@H](CC(C)C)NC(=O)C(C)(C)NC(=O)[C@@H](NC(=O)[C@H](CO)NC(=O)[C@H](Cc1ccc(O)cc1)NC(=O)[C@H](CC(=O)O)NC(=O)[C@H](CO)NC(=O)[C@@H](NC(=O)[C@H](Cc1ccccc1)NC(=O)[C@@H](NC(=O)CNC(=O)[C@H](CCC(=O)O)NC(=O)C(C)(C)NC(=O)[C@@H](N)Cc1ccc(O)cc1)[C@@H](C)O)[C@@H](C)O)[C@@H](C)CC)[C@@H](C)CC)C(C)C)C(=O)N[C@@H](C)C(=O)NCC(=O)NCC(=O)N1CCC[C@H]1C(=O)N[C@@H](CO)C(=O)N[C@@H](CO)C(=O)NCC(=O)N[C@@H](C)C(=O)N1CCC[C@H]1C(=O)N1CCC[C@H]1C(=O)N1CCC[C@H]1C(=O)N[C@@H](CO)C(N)=O` [Tirzepatide, reference compound], for which the Weight change was −16.1 ± 0.71% in the test on C57 BL/6J DIO mice (3 nmol/kg s.c. Q3D for 15 days), −21.6 ± 0.99% with C57 BL/6J DIO mice (10 nmol/kg s.c. Q3D for 15 days) and −32.6 ± 1.60% in the test on C57 BL/6J DIO mice (30 nmol/kg s.c. Q3D for 15 days). The LDL-C with C57 BL/6J DIO mice (3 nmol/kg) is listed as 0.62 ± 0.065 mM; with C57 BL/6J DIO mice (30 nmol/kg) it was 0.57 ± 0.057 mM. The “TC (total cholesterol)” value is 4.12 ± 0.322 mM in the test on C57 BL/6J DIO mice (3 nmol/kg) and 3.28 ± 0.259 mM with C57 BL/6J DIO mice (30 nmol/kg). Further, the entries for the “TG (plasma triglycerides)” value in the test on C57 BL/6J DIO mice (3 nmol/kg) and with C57 BL/6J DIO mice (30 nmol/kg) were 0.97 ± 0.050 mM and 0.79 ± 0.068 mM, respectively. Also, the hypoglycemic effect entry in test [2] (1 mg dose vs Dulaglutide 1.5 mg) is “significantly lower than that of Dulaglutide 1.5 mg”. For the same molecule, in test [2] (1 mg dose), the weight loss effect entry was “almost no weight loss effect”.

B1: Tirzepatide (peptide)
peptide: Y[Aib]QGTFTSDYSI[Aib]LDKIAQK([AEEA-AEEA-γGlu-C20 diacid])AFVQWLIAGGPSSGAPPPS-NH2
modifications: N-terminus assumed
SMILES: CC[C@H](C)[C@H](NC(=O)[C@H](CC(C)C)NC(=O)[C@H](Cc1c[nH]c2ccccc12)NC(=O)[C@H](CCC(N)=O)NC(=O)[C@@H](NC(=O)[C@H](Cc1ccccc1)NC(=O)[C@H](C)NC(=O)[C@H](CCCCNC(=O)COCCOCCNC(=O)COCCOCCNC(=O)CC[C@H](NC(=O)CCCCCCCCCCCCCCCCCCC(=O)O)C(=O)O)NC(=O)[C@H](CCC(N)=O)NC(=O)[C@H](C)NC(=O)[C@@H](NC(=O)[C@H](CCCCN)NC(=O)[C@H](CC(=O)O)NC(=O)[C@H](CC(C)C)NC(=O)C(C)(C)NC(=O)[C@@H](NC(=O)[C@H](CO)NC(=O)[C@H](Cc1ccc(O)cc1)NC(=O)[C@H](CC(=O)O)NC(=O)[C@H](CO)NC(=O)[C@@H](NC(=O)[C@H](Cc1ccccc1)NC(=O)[C@@H](NC(=O)CNC(=O)[C@H](CCC(N)=O)NC(=O)C(C)(C)NC(=O)[C@@H](N)Cc1ccc(O)cc1)[C@@H](C)O)[C@@H](C)O)[C@@H](C)CC)[C@@H](C)CC)C(C)C)C(=O)N[C@@H](C)C(=O)NCC(=O)NCC(=O)N1CCC[C@H]1C(=O)N[C@@H](CO)C(=O)N[C@@H](CO)C(=O)NCC(=O)N[C@@H](C)C(=O)N1CCC[C@H]1C(=O)N1CCC[C@H]1C(=O)N1CCC[C@H]1C(=O)N[C@@H](CO)C(N)=O
In test [3], B1 had a cAMP EC50, CHO cells stably overexpressing human GIP R of 0.21 nM and a cAMP Rel. A (%) against human GIP, human GIP R cells of 86.2%.
